pIC50: −log10 of the molar value.
Experiments:
HDAC8 = target: T1, HDAC8 (Homo sapiens, UniProt Q9BY41); experiment: HDAC enzyme-based fluorogenic assay, HDAC8; format: biochemical
T1 sequence (Q9BY41 1-377): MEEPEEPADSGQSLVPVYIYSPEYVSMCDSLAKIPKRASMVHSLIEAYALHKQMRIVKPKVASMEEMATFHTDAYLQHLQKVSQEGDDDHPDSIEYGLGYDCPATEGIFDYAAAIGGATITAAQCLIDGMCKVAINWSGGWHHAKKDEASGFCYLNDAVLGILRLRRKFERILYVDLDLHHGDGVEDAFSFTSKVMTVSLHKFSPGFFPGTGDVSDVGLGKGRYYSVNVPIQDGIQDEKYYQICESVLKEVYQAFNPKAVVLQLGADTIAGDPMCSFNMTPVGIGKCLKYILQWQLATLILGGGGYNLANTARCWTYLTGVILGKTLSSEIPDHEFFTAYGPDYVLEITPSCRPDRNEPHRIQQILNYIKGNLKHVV

[1] = In vitro metabolic stability in rat liver microsomes; format: in vitro ADME; settings: for half-life: Sprague-Dawley, rat, liver microsomes, pH 7.4; for metabolic stability in RLM, column 0: incubation 0 min; for metabolic stability in RLM, column 0 / metabolic stability in RLM, column 10 / metabolic stability in RLM, column 30 / metabolic stability in RLM, column 45 / metabolic stability in RLM, column 60: 37 °C, NADPH; for metabolic stability in RLM, column 10: incubation 10 min; for metabolic stability in RLM, column 30: incubation 30 min; for metabolic stability in RLM, column 45: incubation 45 min; for metabolic stability in RLM, column 60: incubation 60 min
[2] = Pharmacokinetic study in rats; format: in vivo, SD rats; settings: for CL / Vz: SD rats, ig (oral) 50 mg/kg; for AUC(0-inf) / AUC(0-t) / Cmax / Tmax / Vd / clearance / half-life / bioavailability: both, Sprague-Dawley, rat, plasma; for bioavailability: oral
[3] = tested on: acetylation of α-tubulin and histone H3 in THP-1 cell; experiment: Western blot of acetylation of α-tubulin and histone H3 in THP-1 cell; format: cell-based; settings: 1 μM and 2 μM, 24 h
[4] = tested on: xylene-induced ear swelling inflammation in mice; experiment: Xylene-induced ear swelling inflammation model in mice; format: in vivo, Kunming mice; settings: Table 7 dose study
[5] = tested on: formalin-induced inflammatory pain in mice; experiment: Formalin-induced inflammatory pain model in mice; format: in vivo, Kunming mice; settings: for pain response, second phasic response: dose study, Figure 15, compared with the model group
[6] = tested on: LPS-induced RAW264.7 cells; experiment: Inflammatory factors and iNOS in LPS-induced RAW264.7 cells; format: cell-based
Acute toxicity test = settings: in vivo

Structure (SMILES)	pIC50 (HDAC8)	half-life [1]	metabolic stability in RLM, column 0 [1]	metabolic stability in RLM, column 10 [1]	metabolic stability in RLM, column 30 [1]	metabolic stability in RLM, column 45 [1]	metabolic stability in RLM, column 60 [1]	CL [2]	Vz [2]	AUC(0-inf) ([2]; iv, 10 mg/kg)	AUC(0-t) ([2]; iv, 10 mg/kg)	Cmax ([2]; iv, 10 mg/kg)	Tmax ([2]; iv, 10 mg/kg)	Vd ([2]; iv, 10 mg/kg)	clearance ([2]; iv, 10 mg/kg)	half-life ([2]; iv, 10 mg/kg)	bioavailability ([2]; 50 mg/kg)	AUC(0-inf) ([2]; po, 50 mg/kg)	AUC(0-t) ([2]; po, 50 mg/kg)	Cmax ([2]; po, 50 mg/kg)	further results
O=C(CCCCCCNC(=O)[C@H]1CCCN(C(=O)c2ccc(NC(=O)Nc3cc(F)cc(F)c3)c(F)c2)C1)NO [Compound 28j, (S)-1-(4-(3-(3,5-Difluorophenyl)ureido)-3-fluorobenzoyl)-N-(7-(hydroxyamino)-7-oxoheptyl)piperidine-3-carboxamide]	7.14	0.939 h	100.00	85.62	73.00	59.75	50.47	0.96 L/h	3.95 L	20 µM·h	13.8 µM·h	8.1 µM	0.08 h	1.1 L	3 mL/min	4.08 h	21.5%	18.7 µM·h	14.8 µM·h	10.1 µM	Tmax ([2]; po, 50 mg/kg): 0.17 h; half-life ([2]; po, 50 mg/kg): 2.84 h
O=C(CCCCCCNC(=O)[C@H]1CCCN(C(=O)c2ccc(NC(=O)Nc3ccc(Cl)c(F)c3)c(F)c2)C1)NO [Compound 28g, (S)-1-(4-(3-(4-Chloro-3-fluorophenyl)ureido)-3-fluorobenzoyl)-N-(7-(hydroxyamino)-7-oxoheptyl)piperidine-3-carboxamide]	7.21	2.28 h	100.00	91.61	83.80	78.76	70.64	0.82 L/h	4.20 L	21.2 µM·h	12.3 µM·h	7.87 µM	0.08 h	1.28 L	2.67 mL/min	5.43 h	24.4%	21.2 µM·h	15 µM·h	6.63 µM	acetylation of histone H3 [3]: without affecting histone H3; acetylation of α-tubulin [3]: induced an increase in acetylation of α-tubulin; Tmax ([2]; po, 50 mg/kg): 0.5 h; half-life ([2]; po, 50 mg/kg): 3.55 h; Inhibition rate ([4]; 10 mg/kg by gavage for 7 days): 44.39%; Swelling degree ([4]; 10 mg/kg by gavage for 7 days): 8.7 ± 1.7 mg; Swelling rate ([4]; 10 mg/kg by gavage for 7 days): 69.39%; Inhibition rate ([4]; 30 mg/kg by gavage for 7 days): 67.17%; Swelling degree ([4]; 30 mg/kg by gavage for 7 days): 5.1 ± 0.9 mg; Swelling rate ([4]; 30 mg/kg by gavage for 7 days): 39.50%; pain response, second phasic response ([5]; 10 mg/kg): reduced the pain response; pain response, second phasic response ([5]; 30 mg/kg (high-dose)): significantly reduced the pain response; pain response time, first phasic response ([5]; mice, 30 mg/kg intraperitoneally, Figure 13): did not significantly reduce the pain response time; levels of gene expression of iNOS ([6]; LPS-induced RAW264.7 cells, western blot): suppressed; levels of IL-6, IL-1β, TNF-α and NO ([6]; RAW264.7 cells preconditioned 1–100 µg/mL for 12 h, then LPS 1 µg/mL 12 h, ELISA): significantly reversed this change; safety in acute toxicity test (Acute toxicity test): good safety

From publication PMC11412156 (Journal of medicinal chemistry, 2024)
